Laboratory results: patent US6201116A, “Halide indicators” (The Regents of the University of California, priority 1999, dated 2001)

Key:
[1] = In vitro fluorescence quenching by I^- (Stern-Volmer); type: physicochemical
Method: (§1) Computations. In vitro fluorescence quenching studies were carried out at peak excitation and emission wavelengths. Microliter aliquots of the sodium salt of the quenching anion (1 M) were added to indicator solution in 5 mM sodium phosphate (pH 7.2, unless indicated otherwise). Fluorescence intensities in the absence (Fo) and presence (F) of quencher anion ([Q]) were measured to give the Stem-Volmer constant (Kq) as defined by: Fo /F=1+Kq [Q].

[2] = In vitro fluorescence quenching by Cl^- (Stern-Volmer); type: physicochemical; details: in water (or saline)
Method: as §1

[3] = In vitro fluorescence quenching by other ions (Stern-Volmer); type: physicochemical
Method: as §1

cells [4] = test: Cell loading and intracellular distribution (fluorescence/confocal microscopy); type: cell-based
Method: (§2) Fluorescence microscopy. Fluorescence microscopy measurements were performed as described previously (Chao et al., 1989). Briefly, coverglasses were mounted in a 0.5 ml perfusion chamber in which the cell-free glass surface made contact with an oil immersion objective (Nikon ×40 magnification, numerical aperture[NA] 1.3). Cell fluorescence was excited at 365±10 nm (SPQ) or 420 nm±10 nm (LZQ and LMQ). Emitted fluorescence was detected by a photomultiplier in a Nikon inverted epifluorescence microscope using a 410 nm dichroic mirror and 420 nm barrier filter (SPQ) or a 455 nm dichroic mirror and 500 nm barrier filter (LZQ). For cells colabeled with SPQ and LZQ, SPQ fluorescence was excited at 365±10 nm and detected using a 410 nm dichroic mirror and 455±30 nm interference filter. Confocal fluorescence micrographs were obtained using a Nipkow wheel confocal microscope and cooled CCD camera detector using a ×60 oil immersion objective (Nikon, NA 1.4). LZQ-labeled cells were viewed using a fluorescein filter set (excitation 480±15 nm, emission 520±20 nm).
(§3) Transport measurements. Cells were labeled with LZQ or SPQ by hypotonic shock (loading buffer/water 1:1 containing 2 mM LZQ or 7.5 mM SPQ) for 5 min at room temperature or by overnight incubation with indicators in the cell culture medium. Extracellular indicator was removed by washing just prior to measurements. For fluorescence microscopy, glass coverslips were then mounted in a perfusion chamber (flow ~2 ml/min) in which solutions were exchanged using a 4-way valve. For microplate reader measurements, cells in 96-well plates were bathed in […] of the `1st buffer` (see Table 3) and […] of the Cl^- -containing, I^- -free solution was injected into the well to drive Cl^- /I^- exchange (protocol 1). For stimulation of CFTR using protocol 2, […] of a 1:8 mixture of the 1st buffer and the 2nd buffer containing […] forskolin, 2 mM CPT-cAMP and […] IBMX was added.
(§4) LZQ and LMQ were loaded into cells efficiently by hypotonic shock or passive incubation. […] As was found for SPQ, LZQ and LMQ were non-toxic to cells in assays of cell growth (2 mM in culture medium for 72 h).

cells [5] = test: Photobleaching in cells; type: cell-based
Method: as §2
A time course of LZQ fluorescence during perfusion with physiological saline at 23° C. was generated. A small group of 20-30 cells was illuminated continuously and fluorescence was detected by a photomultiplier using an ×40, 1.3 NA objective. Cellular fluorescence decreased slowly at a rate of 2.5% per hour. To determine the relative contributions of indicator leakage vs. photobleaching to the slow decline in fluorescence, the perfused cells were illuminated intermittently. […] Background fluorescence (in non-labeled cells) was generally <5% of the fluorescence of LZQ-labeled cells.

cells [6] = test: Chemical stability in cells (thin layer chromatography of lysates); type: cell-based; details: TLC of lysates from loaded cells
Method: as §4

[7] = Time-resolved anisotropy in water; type: physicochemical; details: single-component, n=3
Method: Time resolved fluorescence measurements. Fluorescence lifetime and anisotropy decay measurements were carried out in the frequency domain by cuvette fluorimetry using a Fourier transform fluorimeter (48000 MHF, SLM Instruments, Urbana, Ill.) or by fluorescence microscopy using epifluorescence microscope optics in place of the cuvette compartment (Verkman et al., 1991). For microscopy measurements, impulse-modulated vertically polarized light (442 nm, He--Cd laser 35 mwatts) was reflected onto the sample by a 510 nm dichroic mirror and objective lens; emitted fluorescence was filtered by a 515 nm barrier filter and passed through a rotatable analyzing calcite polarizer. In some experiments, a biconcave lens was introduced just in front of the dichroic mirror to diverge beam diameter in the focal plane to […].
Analysis of lifetime and time-resolved anisotropy was performed by a comparative approach. Generally six pairs of measurements (each acquisition 8 s) were obtained, comparing sample and reference (fluorescein in 0.1 N NaOH, lifetime 4.0 ns) for measurement of lifetime, and parallel and perpendicular orientations of the emission polarizer for measurement of anisotropy decay. […] Median phase and modulation values for paired data were analyzed by nonlinear least-squares for determination of lifetimes and rotational correlation times.

CFTR [8] = test: I^-/NO3^- exchange in forskolin-stimulated CFTR-expressing cells; type: cell-based
Method: as §3
For determination of the absolute I^- transport rates, the time course of intracellular [I^- ] was computed from the time course of SPQ or LZQ fluorescence using the modified Stem-Volmer equation [I^- ]={([Fo -Fb ]/[F-Fb ])-1}/KI, where Fo is fluorescence intensity in the absence of I^-, Fb is background fluorescence of unlabeled cells, and KI the intracellular quenching constant for I^- (see Results). I^- transport rates were calculated from the slope of a linear regression of the first 10 time points after changing perfusate composition.
The utility of LZQ for functional measurement of CFTR expression was tested. […] A comparison of data obtained for cells loaded with LZQ and SPQ initially loaded with I^-, followed by replacement of I^- with NO3^- in the absence of forskolin, followed by addition of forskolin was also performed. The initial rates of forskolin-stimulated I^- efflux (SPQ: 0.09±0.02 mM/s; LZQ: 0.08±0.01 mM/s) were similar. Measurements of Cl^- /NO3^- exchange were also carried out by measuring SPQ fluorescence using cells labeled with SPQ alone vs. cells colabeled with SPQ and LZQ.

[9] = Stopped-flow response to addition and removal of I^-; type: physicochemical
CFTR [10] = test: Colabeling: effect of LZQ on SPQ fluorescence / CFTR-mediated Cl^- transport; type: cell-based; details: Cl^-/NO3^- exchange; SPQ alone vs. colabeled with LZQ
Method: as §2, with “LZQ-labeled cells were viewed using a fluorescein filter set (excitation 480±15 nm, emission 520±20 nm).” left out
Transport measurements. […] For fluorescence microscopy, glass coverslips were then mounted in a perfusion chamber (flow ~2 ml/min) in which solutions were exchanged using a 4-way valve. For microplate reader measurements, cells in 96-well plates were bathed in […] of the `1st buffer` (see Table 3) and […] of the Cl^- -containing, I^- -free solution was injected into the well to drive Cl^- /I^- exchange (protocol 1). […]

SMILES: [O-]c1nc2c(N[C@@H]3O[C@H](CO)[C@@H](O)[C@H]3O)ncnc2[n+]2ccccc12 [I, 4-(β-D-ribofuranosylamino)-pyrido [2,1-h] pteridin-11-ium-5-olate]
- Ksv (I^-), Stern Volmer quenching constant ([1]; Table 4): 60 M⁻¹
- Stern-Volmer constant, quenching by I^- ([1]; in water (or saline)): 60 M⁻¹
- effect of pH on I^- sensitivity ([1]; pH 4.5-8): not affected
- Stern-Volmer constant, Cl^- [2]: < 1 M⁻¹
- Stern-Volmer constant, K^+ ([3]; K^+): < 1 M⁻¹
- Stern-Volmer constant, NO3^- ([3]; NO3^-): < 1 M⁻¹
- Stern-Volmer constant, Na^+ ([3]; Na^+): < 1 M⁻¹
- Stern-Volmer constant, acetate ([3]; acetate): < 1 M⁻¹
- Stern-Volmer constant, phosphate ([3]; phosphate): < 1 M⁻¹
- Cellular properties: staining/distribution (cells [4]; Table 4): staining uniform
- labeling of cytoplasm and nucleoplasm (cells [4]; all cell types tested: T84, Calu-3, JME, LLC-PK1, MDCK, 3T3 fibroblasts, CHO, HeLa): uniform labeling of the cytoplasm and nucleoplasm
- fluorescence intensity in cells vs. SPQ (cells [4]; confocal, substantially higher SPQ concentration used): remarkably more intense
- loading into cells (cells [4]; hypotonic shock or passive incubation): efficiently
- Cellular properties: photobleaching (cells [5]; Table 4): slow
- photobleaching, intermittent vs. continuous illumination (cells [5]; low light level conditions): absence of photobleaching
- chemical stability in cells (cells [6]): remained chemically stable in cells
- rotational correlation time [7]: 121±3 ps
- initial rate of forskolin-stimulated I^- efflux (CFTR [8]; I^- replaced by NO3^- without forskolin, then forskolin added): 0.08 ± 0.01 mM/s
- computed I^- efflux rate (CFTR [8]; forskolin-stimulated CFTR-expressing cells, I^-/NO3^- exchange): 0.09 ± 0.03 mM/s
- computed I^- influx rate (CFTR [8]; forskolin-stimulated CFTR-expressing cells, I^-/NO3^- exchange, S.E., n=3): 0.25 ± 0.01 mM/s
- response time to rapid addition and removal of I^- [9]: < 1 ms
- effect on time course of SPQ fluorescence / CFTR-mediated Cl^- transport (CFTR [10]): did not affect the time course of SPQ fluorescence
